Patent publication US20230075937A1, “METHODS FOR STRENGTHENING AND REPAIRING HAIR” (Living Proof, Inc., priority 2021, published 2023)

Assays:
Parameters in all cases: species or system human
[1] = Differential scanning calorimetry (DSC) of hair, denaturation temperature (Td); conditions: for hair denaturation temperature: post-treatment pH 2, 5 min
Method: To explore treatment with PA and PA-GL, studies were performed using 3× bleached hair as a damaged hair model (each bleaching was done with a mixture of Bleaching powder (BW2) and 40V clear developer at 1:2 ratio, for 1 hour at room temperature). […] Differential scanning calorimetry (DSC) was performed on tresses at wet stage to determine the effect of phytic acid treatment on hair denaturation temperatures (Td). For wet stage DSC, a hair sample of 3-5 mg in 50 μL Deionized water sealed and equilibrated (overnight) in a stainless steel pressure resistant high-volume pan is heated from 25° C. to 180° C. at a 5 ° C./min heating rate. […] The heat damaged hair was prepared by subjecting virgin brown hair to 4 cycles of heat treatments. In each cycle, hair was treated with Deionized water (1 mL per 1.5 g of hair), massaged for 30 s followed by heat treatment (blow dry until dry at medium heat setting, flat iron at 450° F. for 10 strokes at a rate of 10 seconds per stroke from root to tip). At the end of 4 cycles of heat treatments, the hair tress is dialyzed overnight in Deionized water and air dried before DSC testing. The PA treatment on the heat damaged hair was performed using a 2 wt % PA aqueous solution at pH 4.5 for 30 min followed by blow dry. […] The heat protection benefit provided by PA using DSC was also explored, for which virgin hair with or without PA pre-treatment was subjected to 3 cycles of heat treatments. A virgin control sample was also added for comparison, which was prepared by treating the virgin brown hair with Deionized water (1 mL per 1.5 g of hair), massaged 30 seconds and air dried. For each heat treatment cycle, hair sample was blow dried until dry at medium heat setting, and flat ironed at 450° F. for 10 strokes at a rate of 10 seconds per stroke from root to tip. After three cycles of heat treatments, hair samples were dialyzed overnight in DI water and air dried before DSC testing. […] To explore strengthening benefits of PA in a hair care formulation, a PA formulation containing 0.75 wt % PA at pH 4-4.5 was used as an example. The 3× bleached hair was treated with 0.25 g of the PA formulation for 10 min followed by blow dry. Differential scanning calorimetry was performed on tresses to determine the effect of phytic acid treatment on hair denaturation temperatures (Td). […] The heat damaged hair was prepared by subjecting virgin brown hair to 4 cycles of heat treatments. In each cycle, hair was treated with Deionized water (1 mL per 1.5 g of hair), massaged for 30 s followed by heat treatment (blow dry until dry at medium heat setting, flat iron at 450° F. for 10 strokes at a rate of 10 seconds per stroke from root to tip). At the end of 4 cycles of the heat treatments, the hair tress is dialyzed overnight in Deionized water and air dried before DSC testing. […] Furthermore, the capability of PA formulation to protect hair from future chemical treatments (bleaching and coloring) was explored. In this study, two sets of treatments were performed and for each set three replicates were included. In Set I, a virgin tress was bleached once (1st bleach), followed by 12 cycles of shampoo and conditioner washes, then another bleach (2nd bleach). In Set II, similar bleaching and washing process was taken except that the tress was treated with PA formulation after the 1st bleach and 3rd, 6th, 9th, and 12th wash. In both bleaching steps, hair was treated with a mixture of BW2 bleaching powder and clear 30 V developer (1:1.5 ratio, 5 g per 1.5 g of hair) for 20 min under heat (high heat setting in a Belvedere hooded dryer), followed by 30 s water rinse and air dry at room temperature. The hair denaturation temperature (Td) was collected after each bleach treatment and every 3 washing cycles. […] Heat protection provided by the PA formulation using DSC was also explored. Here, three groups of hair samples were compared: virgin, heat control, and PA formulation treated. […]

[2] = Dia-Stron single fiber mechanical testing at wet stage
Description: Additionally, the strengthening benefits of PA and PA-GL blend treatments were confirmed by Dia-Stron single fiber mechanical testing at wet stage. For wet stage single fiber method, hair fibers (≥20 fibers per treatment) at 30 mm length are fixed by 2 brass crimps at the ends and mounted on a Dia-stron tray. Initial dimension measurements are collected using a Dia-Stron FDAS770 (double ended samples, sample size of 30 mm, no of slices of 5 under one rotation per slice), followed by equilibration in Deionized water for at least 2 h prior to testing. All fiber tensile measurements are performed using a Dia-Stron MTT686/MTT690 (under 100% extension at gauge force of 2N, break threshold of 5 g, rate of 20 mm/min, maximum force of 2000 gmf and premature failure threshold of 10% strain).

[3] = Differential wetting characterization (DWC), water contact angle
Method: In this method, a pair of hair fibers is mounted on an in-house built stage in a horizontal plane with a separation of ˜0.75 mm. A droplet of deionized water (1 μL) is then applied onto the fiber pair by using a micro syringe. The droplet is observed using a Nikon microscope under 5× magnification and the image is taken using the incorporated digital camera. In the image, the contact angles of the water droplet on the fiber pair are measured respectively using the Nikon Advance Research software. The relative surface hydrophobicity of the fiber pair is correlated to the resulting contact angles, of which the greater value indicates higher hydrophobicity. […]

[4] = Modified Lowry Protein Assay, hair protein loss
Method: In addition, surface repair benefits from the PA or PA-GL treatments were evaluated by a protein loss assay. It is known that hair cuticle damage after various chemical treatments such as bleaching and perming results in a higher protein loss. To quantify the protein loss before and after treatments, a Modified Lowry Protein Assay was employed. In this method, a Lowry assay (Pierce Modified Lowry Protein Assay Kit, working range is at 1-1500 μg/mL) followed by absorbance measurement using UV-Visible Spectrophotometer (λmax at 740-760 nm) is used to quantify hair protein loss for a sample size of 250 mg of hair in 4 mL of deionized water.

[5] = High humidity test, hair tress area change; conditions: 3× bleached hair, 65% RH, vs untreated bleached hair
Method: In this method, hair tresses are exposed to high humidity at 65% RH at 25° C. for 30 min and the area of hair tresses before and after exposure to humidity is quantified using Image J application.

[6] = Relative hair diameter swelling by environmental scanning electron microscopy; conditions: 3× bleached hair; 2 wt % PA pH 4-4.5, 30 min, blow dry; 10% to 95% RH
Method: All measurements were carried out using a FEI Quanta 200 FEG MKII scanning electron microscope, operating at 15 kV, with relative humidity ranging from 10% to 95%. Single source virgin brown hair was bleached three times to obtain a 3× bleached hair model (each bleaching was done with a mixture of bleaching powder (BW2) and 40V clear developer at 1:2 ratio for 1 hour at room temperature, followed by 30 s water rinse and air-dry at room temperature).

[7] = Fracture patterns of fibers broken in Dia-stron tensile testing; conditions: 3× bleached hair; 2 wt % PA pH 4-4.5, 10 min, blow dry (virgin 34%, bleached 6%)
Method: Depending on the level of hair damage, hair fibers may break with very different fracture patterns when pulling to break. […] Fracture patterns of fibers broken from Dia-stron tensile testing were examined under optical microscope to understand the relationship between fracture pattern and hair damage level. […] In contrast, when the bleached hair was treated with a 2 wt % PA aqueous solution at pH 4-4.5 for 10 min, followed by blow dry, 38% smooth fractures were observed, close to that for virgin hair, indicating effective internal hair structure repair and complete restore by PA.
Hair fracture patterns of 3× bleached and PA formulation treated fibers after Dia-stron tensile testing were also examined and compared to those for virgin and bleached hair.

[8] = 3× bleached hair, 2 wt % solution, heat styling (blow dry or flatiron)
[9] = bleached hair, PA at 2, 5 or 15 wt % in Restore Repair Leave-In conditioner, flatiron
[10] = bleached hair, treatment pH 2 to 5, flatiron
[11] = colored hair, post-treatment, blow dry
[12] = more damaged model (2× bleached at 45° C.), 2 wt % PA pH 2, 1 hour

With O=P(O)(O)O[C@H]1[C@H](OP(=O)(O)O)[C@@H](OP(=O)(O)O)[C@H](OP(=O)(O)O)[C@@H](OP(=O)(O)O)[C@H]1OP(=O)(O)O [PA, phytic acid] as the molecule, how does the “Td after 10 shampoo and conditioner washing cycles” value ([1]; 3× bleached hair treated with 2 wt % PA aqueous solution) read?
The value was no less than 149 °C.

And the “hair denaturation temperature (Td)” value ([1]; 3× bleached hair, 2 wt % aqueous solution pH 2, 15 min, heat styling, vs virgin hair)?
Its value is “fully recovered to the virgin level”.

And the denaturation temperature ([1]; 3× bleached hair, PA at 2 wt % or higher concentration, vs virgin hair)?
The denaturation temperature was “recovered back to or even beyond the virgin level”.

What about the hair denaturation temperature ([1]; ATG-reduced hair, blow dry, vs virgin hair) of the same molecule?
Its hair denaturation temperature is “recovered to the level of virgin hair”.

And the hair denaturation temperature ([1]; colored 3× bleached hair, blow dry)?
Its hair denaturation temperature is “recovers to the level of the virgin hair”.

What about the “recovery in Td” value ([1]; heat damaged hair (4 heat cycles), 2 wt % PA pH 4.5, 30 min, blow dry) of the same molecule?
The value was 5 °C.

And the “immediate improvement in Td” value ([1]; treated after 1st bleach (Set II))?
The value was 3 °C.

What about the “Td over 12 washing cycles and after 2nd bleach” value ([1]; treated after 1st bleach and 3rd, 6th, 9th, 12th wash, vs virgin level) of the same molecule?
Its value is “remained above the virgin level”.

What about the “Td after 3 heating cycles” value ([1]; virgin hair treated before each heat treatment (flat iron 450° F.), heat control 7° C. decrease) of the same molecule?
The value was “same Td as virgin hair”.

What about the “change in Td upon 3 cycles of heat treatments” value ([1]; virgin hair with PA pre-treatment, heat protection) of the same molecule?
Its value is “didn't show any significant change”.

And the “Young's modulus” value [2, 8]?
Its value is “greatly improved”.

What about the break stress [2, 8] of the same molecule?
Its break stress is “greatly improved”.

What about the “PA concentration at which significant improvement in Young's modulus and break stress was achieved” value ([2]; 3× bleached hair, PA 0.1 to 20 wt %, 15 min, heat styling) of the same molecule?
Its value is no less than 2 wt %.

And the “Young's modulus” value [2, 9]?
Its value is “significant increases”.

And the break stress [2, 9]?
The break stress was “significant increases”.

What about the “Young's modulus” value [2, 10] of the same molecule?
The value was “greatly improved”.

What about the break stress [2, 10] of the same molecule?
The break stress was “greatly improved”.

What about the “Young's modulus” value [2, 11] of the same molecule?
The value was “greatly improved”.

What about the break stress [2, 11] of the same molecule?
Its break stress is “greatly improved”.

What about the “Young's modulus” value [2, 12] of the same molecule?
The value was “greatly improved”.

What about the break stress [2, 12] of the same molecule?
The break stress was “greatly improved”.

What about the “increase in water contact angle” value ([3]; 3× bleached hair, vs untreated bleached hair) of the same molecule?
The value was 5 °.

And the “increase in water contact angle” value ([3]; ATG-reduced hair)?
Its value is 5 °.

What about the “increase in water contact angle” value ([3]; colored hair) of the same molecule?
The value was 5 °.

What about the “reduction of protein loss” value ([4]; 3× bleached hair, vs untreated bleached hair (6.6 mg/g hair)) of the same molecule?
Its value is 27%.

And the “reduction of protein loss” value ([4]; ATG-reduced hair (7.9 mg/g hair untreated))?
The value was 58%.

What about the “hair tress area increase” value ([5]; 25° C., 30 min) of the same molecule?
Its value is “much less area increase”.

And the “difference in area increase after 7 shampoo and conditioner washing cycles” value [5]?
The value was “remained significant”.

What about the “relative diameter swelling rate” value [6] of the same molecule?
Its value is “greatly reduced, even lower than virgin hair”.

And the smooth fractures [7]?
Its smooth fractures is 38%.
